From patent US20240374581A1, “SALT TYPES OF TRICYCLIC TETRAHYDRO ISOQUINOLINE DERIVATIVE” (JIANGSU HENGRUI PHARMACEUTICALS CO., LTD., priority 2021, published 2024)

Legend:
[1] = test system: MCF-7 cells; assay: Inhibition of proliferation of MCF-7 cells (ATP method); format: cell-based; conditions: Homo sapiens, MCF7; 72 h, Cell Titer-Glo; read-out: IC50, inhibitory effect on proliferation of MCF-7 cells
Description: This experiment was intended to test the inhibitory effect of the compound disclosed herein on the proliferation of MCF-7 cells by using the ATP method, and to evaluate the in vitro activity of the compound according to the IC50 value.
MCF-7 cells (TCHu74, National Collection of Authenticated Cell Cultures) were seeded into a 96-well plate with an MEM (hyclone, SH30024.01B) medium containing 10% FBS (Gibco, 10099-141), 1% sodium pyruvate (sigma, S8636) and 1% non-essential amino acid (sigma, M7145) at a density of 4,000 cells/well and cultured at 37° C. with 5% CO2. 20 mM stock solution of the compound was prepared, serially diluted with 100% DMSO to a final concentration of 1000×, and then diluted 20-fold with a medium containing 2% FBS. After the cells were cultured for 24 h, the medium was removed. 90 μL of the medium containing 2% FBS and 10 μL of a drug were added to each well, and 10 μL of DMSO was added to the control group. The mixtures were well mixed by gentle shaking. The blank group contained only 100 μL of the medium containing 2% FBS. The cells were cultured in an incubator at 37° C. with 5% CO2 for 72 h, and then 50 μL of mixed Cell Titer-Glo (Promega, G7571) was added to each well. The mixtures were well mixed by shaking and let stand at room temperature for 10 min, and the chemiluminescence signal value was determined. […]

[2] = test system: ERα Y537S mutant-expressing MCF7 cells; assay: Inhibition of proliferation of ERα mutant-expressing MCF7 cells; format: cell-based; conditions: Homo sapiens, 144 h, read-out: IC50, inhibitory effect on the proliferation of ERα mutant-expressing MCF7 cells
From the text: The mutant estrogen receptor α (ERα) Y537S of human ERα protein was obtained by site-directed mutagenesis in a two-primer PCR manner using the cDNA of wild-type ESR1 gene (Accession No. NM000125) as a template. The sequences of the primers used in the mutation are as follows (the underlined nucleotides are the sites of mutation): Y537S: F-AAGAACGTGGTGCCCCTCTCTGACCTGCTGCTGGAGATG (SEQ ID NO: 1); R-CATCTCCAGCAGCAGGTCAGAGAGGGGCACCACGTTCTT (SEQ ID NO: 2). The cDNA of the mutant ESR1 was cloned into the lentiviral vector of interest pCDH-CMV-MCS-EF1-Puro. The lentiviral plasmid bearing the mutant ESR1 gene sequence and the lentiviral packaging plasmid were then transfected into HEK-293T cells (ATCC, CRL-3216) by using Lipofectamine 3000 Transfection Reagent (ThermoFisher Scientific, Cat #L3000075). […]
The ERα mutant-expressing MCF7 cells were cultured in an MEM (GE Healthcare, SH30024.01) complete medium containing 10% fetal bovine serum. […] The plate was let stand at room temperature for 10 min, and the luminescence signal value was read using a multilabel microplate reader (PerkinElmer, VICTOR 3). The IC50 value for the inhibitory activity of the compound was calculated according to the compound concentration and the luminescence signal value and is shown in Table 3.

Compound: [2H]C1([2H])Oc2cc3c(cc2O1)[C@@H](c1ccc(NC2CN(CCCF)C2)cn1)N(CC(F)(F)CO)[C@H](C)C3 [Compound 1, 2,2-Difluoro-3-((5S,7R)-5-(5-((1-(3-fluoropropyl)azetidin-3-yl)amino)pyridin-2-yl)-7-methyl-7,8-dihydro-[1,3]dioxolo[4,5-g]isoquinolin-6(5H)-yl-2,2-d2)propan-1-ol]
- IC50 [1]: 0.29 nM
- IC50 [2]: 1.36 nM
